In PMC7385619, “A triple action CDK4/6-PI3K-BET inhibitor with augmented cancer cell cytotoxicity” (Cell Discovery, 2020):
Read-outs that look alike come from different tables or passages of the source.

Experiments:
Assay in all cases: KINOMEscan assay (Eurofins DiscoverX)
Format in all cases: binding
[1] = biological target: T1, kinome (kinase panel) (Homo sapiens, UniProt P41743); conditions: PRKCI; 1000 nM; read-out: Percent Control
T1 construct: purchased Eurofins DiscoverX

[2] = biological target: T2, kinome (kinase panel) (Homo sapiens, UniProt Q14012); conditions: CAMK1; 1000 nM; read-out: Percent Control
T2 construct: purchased Eurofins DiscoverX

[3] = biological target: T3, kinome (kinase panel) (Homo sapiens, UniProt P10721, D816V); conditions: […]; 1000 nM; read-out: Percent Control
T3 construct: purchased Eurofins DiscoverX

[4] = biological target: T4, kinome (kinase panel) (Homo sapiens, UniProt O95382); conditions: ASK2 (Entrez MAP3K6); 1000 nM; read-out: Percent Control
T4 construct: purchased Eurofins DiscoverX

[5] = biological target: T5, kinome (kinase panel) (Homo sapiens, UniProt Q13523); conditions: PRP4 (Entrez PRPF4B); 1000 nM; read-out: Percent Control
T5 construct: purchased Eurofins DiscoverX

[6] = biological target: T6, kinome (kinase panel) (Homo sapiens, UniProt Q86Z02); conditions: HIPK1; 1000 nM; read-out: Percent Control
T6 construct: purchased Eurofins DiscoverX

[7] = biological target: T7, kinome (kinase panel) (Homo sapiens, UniProt P57078); conditions: RIPK4; 1000 nM; read-out: Percent Control
T7 construct: purchased Eurofins DiscoverX

[8] = biological target: T8, kinome (kinase panel) (Homo sapiens, UniProt Q02156); conditions: PRKCE; 1000 nM; read-out: Percent Control
T8 construct: purchased Eurofins DiscoverX

[9] = biological target: T9, kinome (kinase panel) (Homo sapiens, UniProt O15111); conditions: IKK-alpha (Entrez CHUK); 1000 nM; read-out: Percent Control
T9 construct: purchased Eurofins DiscoverX

[10] = biological target: T10, kinome (kinase panel) (Homo sapiens, UniProt O15146); conditions: MUSK; 1000 nM; read-out: Percent Control
T10 construct: purchased Eurofins DiscoverX

[11] = biological target: T11, kinome (kinase panel) (Homo sapiens, UniProt Q9H4A3); conditions: WNK1; 1000 nM; read-out: Percent Control
T11 construct: purchased Eurofins DiscoverX

[12] = biological target: T12, kinome (kinase panel) (Homo sapiens, UniProt Q9NQU5); conditions: PAK6; 1000 nM; read-out: Percent Control
T12 construct: purchased Eurofins DiscoverX

[13] = biological target: T13, kinome (kinase panel) (Homo sapiens, UniProt P04626); conditions: ERBB2; 1000 nM; read-out: Percent Control
T13 construct: purchased Eurofins DiscoverX

[14] = biological target: T14, kinome (kinase panel) (Homo sapiens, UniProt P54756); conditions: EPHA5; 1000 nM; read-out: Percent Control
T14 construct: purchased Eurofins DiscoverX

[15] = biological target: T15, kinome (kinase panel) (Homo sapiens, UniProt Q12851); conditions: MAP4K2; 1000 nM; read-out: Percent Control
T15 construct: purchased Eurofins DiscoverX

[16] = biological target: T16, kinome (kinase panel) (Homo sapiens, UniProt Q8IU85); conditions: CAMK1D; 1000 nM; read-out: Percent Control
T16 construct: purchased Eurofins DiscoverX

[17] = biological target: T17, kinome (kinase panel) (Homo sapiens, UniProt Q9UK32); conditions: 1000 nM, read-out: Percent Control
T17 construct: purchased Eurofins DiscoverX

[18] = biological target: T18, kinome (kinase panel) (Homo sapiens, UniProt Q15349); conditions: 1000 nM, read-out: Percent Control
T18 construct: purchased Eurofins DiscoverX

[19] = biological target: T19, kinome (kinase panel) (Homo sapiens, UniProt P00533, L858R/T790M); conditions: read-out: Percent Control
T19 construct: purchased Eurofins DiscoverX

[20] = biological target: T20, kinome (kinase panel) (Homo sapiens, UniProt P29317); conditions: EPHA2; 1000 nM; read-out: Percent Control
T20 construct: purchased Eurofins DiscoverX

[21] = biological target: T21, kinome (kinase panel) (Homo sapiens, UniProt O14976); conditions: GAK; 1000 nM; read-out: Percent Control
T21 construct: purchased Eurofins DiscoverX

[22] = biological target: T22, kinome (kinase panel) (Homo sapiens, UniProt P42679); conditions: CTK (Entrez MATK); 1000 nM; read-out: Percent Control
T22 construct: purchased Eurofins DiscoverX

[23] = biological target: T23, kinome (kinase panel) (Homo sapiens, UniProt P53779); conditions: JNK3 (Entrez MAPK10); 1000 nM; read-out: Percent Control
T23 construct: purchased Eurofins DiscoverX

[24] = biological target: T24, kinome (kinase panel) (Homo sapiens, UniProt P36896); conditions: ACVR1B; 1000 nM; read-out: Percent Control
T24 construct: purchased Eurofins DiscoverX

[25] = biological target: T25, kinome (kinase panel) (Homo sapiens, UniProt Q9H3Y6); conditions: SRMS; 1000 nM; read-out: Percent Control
T25 construct: purchased Eurofins DiscoverX

[26] = biological target: T26, kinome (kinase panel) (Homo sapiens, UniProt P27448); conditions: MARK3; 1000 nM; read-out: Percent Control
T26 construct: purchased Eurofins DiscoverX

[27] = biological target: T27, kinome (kinase panel) (Homo sapiens, UniProt Q5VT25); conditions: MRCKA (Entrez CDC42BPA); 1000 nM; read-out: Percent Control
T27 construct: purchased Eurofins DiscoverX

[28] = biological target: T28, kinome (kinase panel) (Homo sapiens, UniProt P27037); conditions: ACVR2A; 1000 nM; read-out: Percent Control
T28 construct: purchased Eurofins DiscoverX

[29] = biological target: T29, kinome (kinase panel) (Homo sapiens, UniProt Q13164); conditions: ERK5 (Entrez MAPK7); 1000 nM; read-out: Percent Control
T29 construct: purchased Eurofins DiscoverX

[30] = biological target: T30, kinome (kinase panel) (Homo sapiens, UniProt Q9BUB5); conditions: MKNK1; 1000 nM; read-out: Percent Control
T30 construct: purchased Eurofins DiscoverX

[31] = biological target: T31, kinome (kinase panel) (Homo sapiens, UniProt P23458); conditions: 1000 nM, read-out: Percent Control
T31 construct: purchased Eurofins DiscoverX
T31 sequence (P23458 whole entry): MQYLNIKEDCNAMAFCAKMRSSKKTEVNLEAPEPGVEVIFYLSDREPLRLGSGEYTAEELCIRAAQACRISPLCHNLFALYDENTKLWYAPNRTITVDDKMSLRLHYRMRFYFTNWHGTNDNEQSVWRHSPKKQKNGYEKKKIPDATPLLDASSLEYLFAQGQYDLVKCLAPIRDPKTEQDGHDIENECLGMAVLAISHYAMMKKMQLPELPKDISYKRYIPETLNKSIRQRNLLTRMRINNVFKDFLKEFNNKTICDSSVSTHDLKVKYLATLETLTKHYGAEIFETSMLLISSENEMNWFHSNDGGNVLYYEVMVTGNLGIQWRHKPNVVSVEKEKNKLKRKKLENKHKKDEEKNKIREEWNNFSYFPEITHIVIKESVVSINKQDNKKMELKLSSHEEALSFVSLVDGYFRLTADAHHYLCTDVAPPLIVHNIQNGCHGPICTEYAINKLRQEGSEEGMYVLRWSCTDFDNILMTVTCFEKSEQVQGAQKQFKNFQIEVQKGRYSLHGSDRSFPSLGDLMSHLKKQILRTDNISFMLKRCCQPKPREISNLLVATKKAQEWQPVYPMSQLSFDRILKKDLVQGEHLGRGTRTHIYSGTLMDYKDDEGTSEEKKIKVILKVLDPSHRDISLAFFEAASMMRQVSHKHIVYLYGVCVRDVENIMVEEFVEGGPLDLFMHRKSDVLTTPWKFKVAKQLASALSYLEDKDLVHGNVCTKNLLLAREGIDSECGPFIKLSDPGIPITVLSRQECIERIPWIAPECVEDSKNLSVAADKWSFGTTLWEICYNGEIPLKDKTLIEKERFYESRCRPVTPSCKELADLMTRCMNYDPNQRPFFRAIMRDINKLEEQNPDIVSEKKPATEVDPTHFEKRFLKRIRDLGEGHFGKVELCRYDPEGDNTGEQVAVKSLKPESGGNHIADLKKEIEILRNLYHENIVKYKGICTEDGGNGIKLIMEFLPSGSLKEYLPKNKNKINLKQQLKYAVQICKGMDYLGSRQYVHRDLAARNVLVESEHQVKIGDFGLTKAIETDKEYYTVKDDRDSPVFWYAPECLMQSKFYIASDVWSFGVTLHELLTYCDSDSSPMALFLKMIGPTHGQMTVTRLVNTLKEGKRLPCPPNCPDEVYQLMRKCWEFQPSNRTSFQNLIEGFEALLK

T17 sequence (Q9UK32 whole entry): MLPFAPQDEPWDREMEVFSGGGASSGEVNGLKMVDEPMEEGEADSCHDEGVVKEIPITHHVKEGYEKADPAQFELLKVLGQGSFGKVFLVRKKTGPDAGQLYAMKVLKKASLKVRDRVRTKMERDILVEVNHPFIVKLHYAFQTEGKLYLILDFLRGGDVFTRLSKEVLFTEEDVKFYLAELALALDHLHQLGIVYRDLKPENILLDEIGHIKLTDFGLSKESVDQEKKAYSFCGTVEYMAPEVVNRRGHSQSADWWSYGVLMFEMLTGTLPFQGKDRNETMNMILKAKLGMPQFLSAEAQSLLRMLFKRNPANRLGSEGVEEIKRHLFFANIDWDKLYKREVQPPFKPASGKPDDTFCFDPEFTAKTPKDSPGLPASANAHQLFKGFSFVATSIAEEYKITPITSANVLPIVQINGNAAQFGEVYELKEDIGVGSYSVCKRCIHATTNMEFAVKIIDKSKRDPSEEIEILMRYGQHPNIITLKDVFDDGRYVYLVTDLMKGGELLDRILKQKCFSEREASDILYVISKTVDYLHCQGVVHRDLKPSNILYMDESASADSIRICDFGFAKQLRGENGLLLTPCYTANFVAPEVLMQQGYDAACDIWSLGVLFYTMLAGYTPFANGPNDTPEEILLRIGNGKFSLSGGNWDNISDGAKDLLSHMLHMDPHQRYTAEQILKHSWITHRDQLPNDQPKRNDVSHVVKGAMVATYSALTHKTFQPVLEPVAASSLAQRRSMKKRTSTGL
T18 sequence (Q15349 whole entry): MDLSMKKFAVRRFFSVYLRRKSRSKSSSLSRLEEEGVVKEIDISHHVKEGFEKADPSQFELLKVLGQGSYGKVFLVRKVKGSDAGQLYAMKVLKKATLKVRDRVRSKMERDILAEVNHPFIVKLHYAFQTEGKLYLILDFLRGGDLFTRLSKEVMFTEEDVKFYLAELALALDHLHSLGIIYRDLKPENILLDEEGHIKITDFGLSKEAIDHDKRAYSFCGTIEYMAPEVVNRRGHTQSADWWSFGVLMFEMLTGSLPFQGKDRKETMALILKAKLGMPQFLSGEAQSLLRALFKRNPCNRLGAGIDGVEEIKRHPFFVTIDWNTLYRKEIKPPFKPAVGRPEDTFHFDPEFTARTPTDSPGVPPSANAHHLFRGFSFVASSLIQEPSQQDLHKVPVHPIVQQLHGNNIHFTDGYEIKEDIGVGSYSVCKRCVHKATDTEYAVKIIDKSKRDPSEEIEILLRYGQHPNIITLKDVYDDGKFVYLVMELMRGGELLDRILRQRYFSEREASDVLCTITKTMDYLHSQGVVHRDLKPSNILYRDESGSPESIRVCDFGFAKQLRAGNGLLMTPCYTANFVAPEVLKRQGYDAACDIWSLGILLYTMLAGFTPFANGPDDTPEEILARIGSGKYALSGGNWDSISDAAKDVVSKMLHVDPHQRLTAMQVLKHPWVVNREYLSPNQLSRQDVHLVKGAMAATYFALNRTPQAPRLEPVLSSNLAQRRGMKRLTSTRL
T27 sequence (Q5VT25 whole entry): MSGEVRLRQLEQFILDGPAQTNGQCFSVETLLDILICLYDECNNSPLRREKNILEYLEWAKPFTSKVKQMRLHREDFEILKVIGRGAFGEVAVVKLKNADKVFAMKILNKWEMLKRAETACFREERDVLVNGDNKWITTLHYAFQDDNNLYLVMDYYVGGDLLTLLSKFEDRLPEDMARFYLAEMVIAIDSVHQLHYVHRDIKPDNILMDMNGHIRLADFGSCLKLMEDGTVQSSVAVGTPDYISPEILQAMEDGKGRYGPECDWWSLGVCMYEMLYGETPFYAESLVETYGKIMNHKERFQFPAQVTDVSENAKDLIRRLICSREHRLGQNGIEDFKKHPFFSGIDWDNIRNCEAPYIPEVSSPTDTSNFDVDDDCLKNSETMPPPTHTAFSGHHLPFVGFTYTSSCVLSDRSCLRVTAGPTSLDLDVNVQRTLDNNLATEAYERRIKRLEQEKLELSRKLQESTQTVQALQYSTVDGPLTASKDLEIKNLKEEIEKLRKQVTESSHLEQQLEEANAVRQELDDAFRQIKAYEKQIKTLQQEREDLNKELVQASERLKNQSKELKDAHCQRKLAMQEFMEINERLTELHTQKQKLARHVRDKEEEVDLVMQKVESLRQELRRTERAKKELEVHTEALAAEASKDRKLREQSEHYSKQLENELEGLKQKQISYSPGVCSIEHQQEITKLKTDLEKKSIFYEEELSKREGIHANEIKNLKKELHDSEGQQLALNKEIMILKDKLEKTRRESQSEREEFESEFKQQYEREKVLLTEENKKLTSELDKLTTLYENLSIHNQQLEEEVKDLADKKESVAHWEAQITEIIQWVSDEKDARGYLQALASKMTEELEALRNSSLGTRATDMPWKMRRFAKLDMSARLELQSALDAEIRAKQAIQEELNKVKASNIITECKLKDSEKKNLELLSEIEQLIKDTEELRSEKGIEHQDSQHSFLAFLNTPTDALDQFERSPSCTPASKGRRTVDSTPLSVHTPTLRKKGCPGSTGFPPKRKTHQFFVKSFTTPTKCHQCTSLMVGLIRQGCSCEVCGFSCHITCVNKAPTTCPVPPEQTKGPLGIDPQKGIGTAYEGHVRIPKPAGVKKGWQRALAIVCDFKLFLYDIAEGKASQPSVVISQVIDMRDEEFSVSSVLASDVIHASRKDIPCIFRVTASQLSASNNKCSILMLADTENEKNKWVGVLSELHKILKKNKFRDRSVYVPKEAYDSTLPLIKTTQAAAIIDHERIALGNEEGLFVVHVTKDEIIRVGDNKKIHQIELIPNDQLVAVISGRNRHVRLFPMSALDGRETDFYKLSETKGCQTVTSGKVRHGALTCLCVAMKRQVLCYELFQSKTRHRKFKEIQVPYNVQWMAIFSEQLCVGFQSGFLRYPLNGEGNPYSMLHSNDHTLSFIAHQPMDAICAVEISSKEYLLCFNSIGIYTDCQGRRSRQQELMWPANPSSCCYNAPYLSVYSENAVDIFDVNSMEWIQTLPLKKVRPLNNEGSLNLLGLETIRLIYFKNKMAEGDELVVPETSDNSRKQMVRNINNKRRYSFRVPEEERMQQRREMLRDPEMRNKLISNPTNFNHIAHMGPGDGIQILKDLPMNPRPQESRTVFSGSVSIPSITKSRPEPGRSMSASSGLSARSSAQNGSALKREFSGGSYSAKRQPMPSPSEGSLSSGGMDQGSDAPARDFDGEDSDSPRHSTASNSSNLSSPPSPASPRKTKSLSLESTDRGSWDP
T30 sequence (Q9BUB5 whole entry): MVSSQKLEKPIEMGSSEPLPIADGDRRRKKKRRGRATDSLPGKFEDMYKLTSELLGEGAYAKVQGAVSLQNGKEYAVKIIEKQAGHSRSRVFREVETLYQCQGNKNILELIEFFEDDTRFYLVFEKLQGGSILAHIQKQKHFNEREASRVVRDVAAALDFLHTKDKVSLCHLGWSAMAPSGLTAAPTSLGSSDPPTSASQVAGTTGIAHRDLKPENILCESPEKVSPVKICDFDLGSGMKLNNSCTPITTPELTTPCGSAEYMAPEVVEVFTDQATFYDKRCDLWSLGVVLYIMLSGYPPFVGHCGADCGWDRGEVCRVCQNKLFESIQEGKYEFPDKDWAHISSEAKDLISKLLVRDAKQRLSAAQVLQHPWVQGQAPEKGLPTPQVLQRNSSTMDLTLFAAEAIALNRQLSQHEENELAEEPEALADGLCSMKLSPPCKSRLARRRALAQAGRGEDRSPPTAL

SMILES: CN(C)C(=O)c1cc2cnc(Nc3ccc(-c4csc5c(=O)cc(N6CCOCC6)oc45)cc3)nc2n1C1CCCC1 [SRX3177]
- remaining binding at 1 µM [1]: 89%
- remaining binding at 1 µM [2]: 51%
- remaining binding at 1 µM [3]: 23%
- remaining binding at 1 µM [4]: 91%
- remaining binding at 1 µM [5]: 58%
- remaining binding at 1 µM [6]: 86%
- remaining binding at 1 µM [7]: 58%
- remaining binding at 1 µM [8]: 93%
- remaining binding at 1 µM [9]: 61%
- remaining binding at 1 µM [10]: 95%
- remaining binding at 1 µM [11]: 93%
- remaining binding at 1 µM [12]: 100%
- remaining binding at 1 µM [13]: 76%
- remaining binding at 1 µM [14]: 100%
- remaining binding at 1 µM [15]: 82%
- remaining binding at 1 µM [16]: 95%
- remaining binding at 1 µM ([17]; RSK4(Kin.Dom.1-N-terminal) (RPS6KA6)): 90%
- remaining binding at 1 µM ([17]; RSK4(Kin.Dom.2-C-terminal) (RPS6KA6)): 90%
- remaining binding at 1 µM ([18]; RSK3(Kin.Dom.1-N-terminal) (RPS6KA2)): 80%
- remaining binding at 1 µM ([18]; RSK3(Kin.Dom.2-C-terminal) (RPS6KA2)): 74%
- remaining binding at 1 µM [19]: 58%
- remaining binding at 1 µM [20]: 76%
- remaining binding at 1 µM [21]: 56%
- remaining binding at 1 µM [22]: 94%
- remaining binding at 1 µM [23]: 55%
- remaining binding at 1 µM [24]: 100%
- remaining binding at 1 µM [25]: 92%
- remaining binding at 1 µM [26]: 85%
- remaining binding at 1 µM [27]: 98%
- remaining binding at 1 µM [28]: 99%
- remaining binding at 1 µM [29]: 96%
- remaining binding at 1 µM [30]: 42%
- remaining binding at 1 µM ([31]; JAK1(JH1domain-catalytic)): 96%
- remaining binding at 1 µM ([31]; JAK1(JH2domain-pseudokinase)): 9.5%
